Entries after “also recorded” stand apart in the source; their conditions may differ. Marks after values point to notes of the source that are not given here.
Legend:
[1] = test system: CA1 pyramidal cell layer of organotypic hippocampal slice cultures; assay: Hypoxic neuronal damage in organotypic hippocampal slice cultures (propidium iodide fluorescence); type: cell-based, Wistar rat
Method: Hypoxic neuronal damage was studied using organotypic hippocampal slice cultures [Pringle A. K. et al. (1996 Stroke 27 2124-2130)].
Cultures were prepared according to the method of Stoppini et al (1991 J. Neurosci. Meth. 37 173-182) from 8-10 day old Wistar rat pups (Bioresources Unit, University of Southampton). Cultures were maintained in vitro for 14 days (37° C., 5% CO2) during which the medium (50% minimum essential medium (MEM), 25% Hank's balanced salt solution (HBSS), 25% heat-inactivated horse serum, supplemented with 1 mM glutamine, 5 mg/ml glucose and 1.5% fungizone) was changed every 3 days. Hypoxia was induced by replacing culture medium with serum-free (SF) medium (75% MEM, 25% HBSS, 1 mM glutamine, 5 mg/ml glucose, 1.5% fungizone) saturated with 95% N2/5% CO2 (and thus oxygen-free), and placing cultures in an air-tight chamber in which the atmosphere was also saturated with N2/CO2. After 180 minutes hypoxia, cultures were replated in normoxic SF medium and replaced in the incubator for 24 hours. Compounds were added to cultures either pre-, during and post-hypoxia (herein abbreviated to “pdp”) or just in the post-hypoxic recovery period (“post”) [Johnson, T. D. (1996 Trends Pharmacol. Sci. 22-27)]. Cell damage was evaluated using the fluorescent exclusion dye propidium iodide (PI, 5 μg/ml) which is normally excluded from healthy cells, but enters cells with damaged plasma membranes and becomes highly fluorescent when bound to DNA. Neuronal cell damage was quantified using the “NIH Image 1.55” software (written by Wayne Rasband at the U.S. National Institutes for Health and available from the internet by anonymous ftp from zippy.nimh.nih.gov). Briefly, the area of the CA1, CA3 and dentate gyrus (DG) cell layers was measured from a transmission image. 24 hours after the commencement of hypoxia, a fluorescence image was captured using a standard Leica inverted fluorescence microscope fitted with a rhodamine filter set. The area of PI fluorescence above background in the neuronal cell layers was determined using the density slice function of Image. Cellular damage is expressed as the percentage area of the cell body layers in which PI fluorescence was detectable. After imaging, cultures were fixed overnight in 4% paraformaldehyde and stained with thionin.
Data are expressed as the mean±sem. Data from the non-drug groups was pooled before analysis. Statistical significance was determined using one-way analysis of variance (ANOVA) followed by post-hoc non-paired Student's t-tests. As only cells within the CA1 region were susceptible to hypoxia-induced damage, all of the pharmacological data was calculated for this region alone.
Table 1 represents the quantification of the percentage area of the CA1 pyramidal cell layer in which PI fluorescence was detectable 24 hours after 3 hours of hypoxia (% Damage CA1). Data from all of the cultures exposed to hypoxia alone were pooled (control hypoxia). The percentage neuroprotection was calculated as the (((% damage control hypoxia-% damage drug treated)/% damage control hypoxia) 100). Data are expressed as the mean±sem, n=number of cultures, *p<0.05, **<0.01, ***p<0.001 vs hypoxia control.

mice = conditions: FTX isolated from funnel-web spider toxin; Proc. Natl. Acad. Sci. USA 86, 1689-1693 (1989); cited from earlier work
[2] = Table 1, 300 μM added post-hypoxia, 3 h hypoxia, PI at 24 h, control hypoxia 35.6 ± 1.43, mean±sem
[3] = Table 1, 300 μM added post-hypoxia, vs control hypoxia

Compound | neuroprotective effect / reduction of PI fluorescence in CA1 (in words) ([1]; 300 μM added post-hypoxia) | % Damage CA1 [1, 2] | % Protection [1, 3] [%] | other results
NCCCCNCCCNC(=O)C(N)CCCCN [B, N^1-L-Lysinylspermidine] | also protective, although to a lesser extent | 27.0 ± 3.7* % | 24.2 | neuroprotective effect / reduction of PI fluorescence in CA1 (in words) ([1]; 300 μM added post-hypoxia, listed as L-LysSp): small but significant reduction in PI fluorescence; also recorded: active
NCCCCNCCCNC(=O)C(N)CCCN [C, N^1-L-Ornithylspermidine] | also protective, although to a lesser extent | 30.6 ± 3.8% | 14.0 | neuroprotective effect / reduction of PI fluorescence in CA1 (in words) ([1]; 300 μM added post-hypoxia, listed as L-OrnSp): less of a significant reduction in damage; also recorded: active
NCCCCNCCCNC(=O)C(N)CCCNC(N)=O (stereo not drawn) [Compound I] | significant protective effect |  |  | % Protection ([1]; Table 6, 300 μM post): 53%; % Damage CA1 ([1]; Table 6, 300 μM post, hypoxia control 23.2 ± 4.9): 10.9 ± 5.7* %
NC(N)=NCCCC(N)C(=O)O [D-Arg, reference compound] |  | 32.7 ± 7.0% | 8.1 | 
N=C(N)NCCCC(N)C(=O)NCCCNCCCN (stereo not drawn) [FTX] |  |  |  | toxicity to mice (in words) (mice): toxic to mice in extremely small doses
N=C(N)NCCC[C@H](N)C(=O)O [L-Arg, L-arginine, reference compound] | no efficacy was detected | 38.5 ± 4.0% | 0 | neuroprotective effect / reduction of PI fluorescence in CA1 (in words) ([1]; 300 μM added post-hypoxia, listed as L-arginine): Neither spermidine nor L-arginine individually produced a reduction in damage
NCCCCNCCCN [Spermidine, spermidine, reference compound] | no neuroprotective effects; also recorded: no efficacy was detected | 34.2 ± 5.4% | 3.9 | 
N1-D-Arginylspermidine [Compound Z^1] |  | 32.6 ± 4.1% | 8.4 | neuroprotective effect / reduction of PI fluorescence in CA1 (in words) ([1]; 300 μM added post-hypoxia, listed as D-ArgSp): did not result in any observable reduction of PI fluorescence; also recorded: inactive
N^1-D-Lysinylspermidine [Compound Z^2] |  | 36.3 ± 3.5% | 0 | neuroprotective effect / reduction of PI fluorescence in CA1 (in words) ([1]; 300 μM added post-hypoxia, listed as D-LysSp): did not result in any observable reduction of PI fluorescence; also recorded: inactive
N^1-D-Ornithylspermidine [Compound Z^3] | did not result in any observable reduction of PI fluorescence | 36.71 ± 3.2% | 0 | 

Reference: US6797699B1, “Neuroprotective agents” (University of Southampton, priority 1997, dated 2004)
